Reference: PubChem BioAssay (NCI)
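Interpolation was linear, between the two tested concentrations surrounding the appropriate level; five concentrations were tested over 48 hours in 96-well plates. TGI: concentration producing complete growth inhibition.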

Legend:
Test in all cases: DTP human tumour cell line panel, 48 h
NCI-H23 lung = test system: NCI-H23 lung
HT29 colon = test system: HT29 colon
SNB-19 CNS = test system: SNB-19 CNS
UACC-62 melanoma = test system: UACC-62 melanoma
SF-295 CNS = test system: SF-295 CNS
SK-MEL-2 melanoma = test system: SK-MEL-2 melanoma
HL-60(TB) leukemia = test system: HL-60(TB) leukemia
NCI-H460 lung = test system: NCI-H460 lung
COLO 205 colon = test system: COLO 205 colon
U251 CNS = test system: U251 CNS
SW-620 colon = test system: SW-620 colon
A549 NSCLC = test system: A549 NSCLC
RPMI-8226 leukemia = test system: RPMI-8226 leukemia
HCT-15 colon = test system: HCT-15 colon
RXF 393 renal = test system: RXF 393 renal
OVCAR-3 ovarian = test system: OVCAR-3 ovarian
UACC-257 melanoma = test system: UACC-257 melanoma
DU-145 prostate = test system: DU-145 prostate
HOP-92 NSCLC = test system: HOP-92 NSCLC

| SMILES | TGI (NCI-H23 lung) [µM] | TGI (HT29 colon) [µM] | TGI (SNB-19 CNS) [µM] | TGI (UACC-62 melanoma) [µM] | TGI (SF-295 CNS) [µM] | TGI (SK-MEL-2 melanoma) [µM] | TGI (HL-60(TB) leukemia) [µM] | TGI (NCI-H460 lung) [µM] | TGI (COLO 205 colon) [µM] | TGI (U251 CNS) [µM] | TGI (SW-620 colon) [µM] | TGI (A549 NSCLC) [µM] | TGI (RPMI-8226 leukemia) [µM] | TGI (HCT-15 colon) [µM] | TGI (RXF 393 renal) [µM] | TGI (OVCAR-3 ovarian) [µM] | TGI (UACC-257 melanoma) [µM] | TGI (DU-145 prostate) [µM] | TGI (HOP-92 NSCLC) [µM] |
| --- | --- | --- | --- | --- | --- | --- | --- | --- | --- | --- | --- | --- | --- | --- | --- | --- | --- | --- | --- |
| COc1ccc(NC(C)=O)cc1N1C(=O)/C(=C\c2ccccc2)SC1c1cc(OC)c(OC)c(OC)c1 (configuration not stated) | > 100 | > 100 | > 100 | > 100 | > 100 | > 100 | 81 | 44.5 | > 100 | > 100 | > 100 | > 100 | > 100 | 58.8 | > 100 | > 100 | > 100 | 80.6 | > 100 |
| O/N=C(/CC(O)(C(F)(F)F)C(F)(F)F)c1ccccc1 | > 10 | > 10 | > 10 | > 10 | > 10 | > 10 | > 10 | > 10 | > 10 | > 10 | > 10 | > 10 | > 10 | > 10 | > 10 | > 10 | > 10 | > 10 | > 10 |
| N#CC(C#N)=C/C=C/c1c(Cl)cccc1Cl | 2.87 | 3.25 | > 10 | 2.91 | 4.38 | 3.47 | 4.04 | 4.08 | 3.17 | 4.08 | 4.21 | 7.22 | 7.46 | 4.01 | 2.97 | 5.67 | 2.99 | 3.2 | 4.8 |
| O=S1(=O)c2ccccc2C(Nc2ccccc2)N1c1ccccc1 (configuration not stated) | > 100 | > 100 |  | > 100 | > 100 | > 100 | > 100 | > 100 |  | > 100 | > 100 | > 100 | > 100 | > 100 | > 100 | > 100 | > 100 | > 100 | > 100 |
| Cc1cc(=O)oc2c(CNC(CO)C(=O)O)c(O)ccc12 (configuration not stated) | > 100 | > 100 | > 100 | > 100 | > 100 | > 100 | > 100 | > 100 | > 100 | > 100 | > 100 | > 100 | > 100 | > 100 | > 100 | > 100 | > 100 | > 100 | > 100 |
| N#Cc1ccc(-c2nc3c(N)nc(-c4ccccc4)nc3o2)cc1 | > 100 | > 100 | > 100 | > 100 | > 100 | > 100 | > 100 | > 100 | > 100 | 27.7 | > 100 | > 100 | > 100 | > 100 | > 100 | > 100 | > 100 | > 100 | > 100 |
